“Also recorded” adds a separate entry of the source.
Columns and labels:
Assay type in all cases: cell-based, HIV-1
[1] = system: RTV-644 (RT K101E, G190S); test: Phenotypic susceptibility assay (patient RTV); settings: for decrease in susceptibility (fold, IC50): patient RTV pool; for change in susceptibility: patient virus vs reference virus
Description: (§1) The resistance test vectors containing a functional luciferase gene cassette were constructed and host cells were transfected with the resistance test vector DNA. The resistant test vectors contained patient-derived reverse transcriptase and protease sequences that were either susceptible or resistant to the antiretroviral agents, such as nucleoside reverse transcriptase inhibitors, non-nucleoside reverse transcriptase inhibitors and protease inhibitors. The resistance test vector viral particles produced by transfecting the resistance test vector DNA into host cells, either in the presence or absence of protease inhibitors, were used to infect target host cells grown either in the absence of NRTI or NNRTI or in the presence of increasing concentrations of the drug. The amount of luciferase activity produced in infected target host cells in the presence of drug was compared to the amount of luciferase produced in infected target host cells in the absence of drug. Drug resistance was measured as the amount of drug required to inhibit by 50% the luciferase activity detected in the absence of drug (inhibitory concentration 50%, IC50). The IC50 values were determined by plotting percent drug inhibition vs. log10 drug concentration.
Host cells were seeded in 10-cm-diameter dishes and were transfected several days after plating with resistance test vector plasmid DNA and the envelope expression vector. Transfections were performed using a calcium-phosphate precipitation procedure. The cell culture media containing the DNA precipitate was replaced with fresh medium, from one to 24 hours, after transfection. Cell culture media containing resistance test vector viral particles was harvested one to four days after transfection and was passed through a […] filter before being stored at […]. HIV capsid protein (p24) levels in the harvested cell culture media were determined by an EIA method as described by the manufacturer (SIAC; Frederick, Md.). Before infection, target cells (293 and 293/T) were plated in cell culture media. […] The inhibitory effect of the drug was determined using the following equation: % luciferase inhibition=1−(RLUluc [drug]÷RLUluc)×100 where RLUluc [drug] is the relative light unit of luciferase activity in infected cells in the presence of drug and RLUluc is the Relative Light Unit of luciferase activity in infected cells in the absence of drug. […]
A resistance test vector was constructed as described in Example 1 from a patient sample designated 97-644. […] RTV-644 was then tested using the phenotypic susceptibility assay to determine accurately and quantitatively the level of susceptibility to a panel of anti-retroviral drugs. […] An IC50 was determined for each drug tested. […]

[2] = system: RTV-955, patient 98-955 (RT K101E, K103N, Y181C, G190A mixtures); test: Phenotypic susceptibility assay (patient RTV); settings: patient RTV pool
Description: (§2) The resistance test vectors containing a functional luciferase gene cassette were constructed and host cells were transfected with the resistance test vector DNA. The resistant test vectors contained patient-derived reverse transcriptase and protease sequences that were either susceptible or resistant to the antiretroviral agents, such as nucleoside reverse transcriptase inhibitors, non-nucleoside reverse transcriptase inhibitors and protease inhibitors. […] The IC50 values were determined by plotting percent drug inhibition vs. log10 drug concentration.
(§3) Host cells were seeded in 10-cm-diameter dishes and were transfected several days after plating with resistance test vector plasmid DNA and the envelope expression vector. […] HIV capsid protein (p24) levels in the harvested cell culture media were determined by an EIA method as described by the manufacturer (SIAC; Frederick, Md.). […] The inhibitory effect of the drug was determined using the following equation: % luciferase inhibition=1−(RLUluc [drug]÷RLUluc)×100 where RLUluc [drug] is the relative light unit of luciferase activity in infected cells in the presence of drug and RLUluc is the Relative Light Unit of luciferase activity in infected cells in the absence of drug. […]

[3] = system: RTV-757, patient 98-757 (RT V106A, V108I, V189L); test: Phenotypic susceptibility assay (patient RTV); settings: patient RTV pool
Description: as §1
(§4) Host cells were seeded in 10-cm-diameter dishes and were transfected several days after plating with resistance test vector plasmid DNA and the envelope expression vector. Transfections were performed using a calcium-phosphate precipitation procedure. The cell culture media containing the DNA precipitate was replaced with fresh medium, from one to 24 hours, after transfection. Cell culture media containing resistance test vector viral particles was harvested one to four days after transfection and was passed through a […] filter before being stored at […]. HIV capsid protein (p24) levels in the harvested cell culture media were determined by an EIA method as described by the manufacturer (SIAC; Frederick, Md.). Before infection, target cells (293 and 293/T) were plated in cell culture media. Control infections were performed using cell culture media from mock transfections (no DNA) or transfections containing the resistance test vector plasmid DNA without the envelope expression plasmid. One to three or more days after infection the media was removed and cell lysis buffer (Promega) was added to each well. Cell lysates were assayed for luciferase activity (FIG. 3). The inhibitory effect of the drug was determined using the following equation: % luciferase inhibition=1−(RLUluc [drug]÷RLUluc)×100 where RLUluc [drug] is the relative light unit of luciferase activity in infected cells in the presence of drug and RLUluc is the Relative Light Unit of luciferase activity in infected cells in the absence of drug. IC50 values were obtained from the sigmoidal curves that were generated from the data by plotting the percent inhibition of luciferase activity vs. the log10 drug concentration. The drug inhibition curves are shown in (FIG. 3).
A resistance test vector was constructed as described in Example 1 from a patient sample designated 98-1033. […]

[4] = system: P225H-RTV; test: Phenotypic susceptibility assay (site directed mutant RTV); settings: P225H alone vs wild type control RTV
Description: as §1, §4
(§5) Genotypic changes that are observed to correlate with changes in phenotypic patterns of drug susceptibility are evaluated by construction of resistance test vectors containing the specific mutation on a defined, wild-type (drug susceptible) genetic background. Mutations may be incorporated alone and/or in combination with other known drug resistance mutations that are thought to modulate the susceptibility of HIV to a certain drug or class of drugs. Mutations are introduced into the resistance test vector through any of the widely known methods for site-directed mutagenesis. In one embodiment of this invention the mega-primer PCR method for site-directed mutagenesis is used. […]

[5] = system: RTV with P236L plus K103N, Y181C or both; test: as above; settings: P236L with K103N and/or Y181C vs RTV lacking P236L
Description: as §1, §4, §5

[6] = system: K103N and Y181C double mutant; test: as above; settings: FIG. 5
Description: Phenotypic drug susceptibility and resistance profile of site directed reverse transcriptase mutants.
as §2, §3

SMILES	decrease in susceptibility (fold, IC50) [1] [fold]	change in susceptibility [1]	decrease in susceptibility (fold, IC50) [2] [fold]	decrease in susceptibility (fold, IC50) [3]	change in susceptibility [4]	change in susceptibility [5]	change in susceptibility [6]
CC(C)Nc1cccnc1N1CCN(C(=O)c2cc3cc(NS(C)(=O)=O)ccc3[nH]2)CC1 [delavirdine]	2.5	little or no resistance	4	10 fold	more susceptible; also recorded: increase; also recorded: increase3s susceptibility	less susceptible; also recorded: additional reduction; also recorded: severe resistance	further increase in resistance
O=C1Nc2ccc(Cl)cc2[C@@](C#CC2CC2)(C(F)(F)F)O1 [efavirenz]						restores a significant portion of the loss of susceptibility	
Cc1ccnc2c1NC(=O)c1cccnc1N2C1CC1 [nevirapine]	600	resistant	530	greater than 800 fold	No significant change; also recorded: little or no change		further increase in resistance

— patent US7037644B1, “Means and methods for monitoring non-nucleoside reverse transcriptase inhibitor antiretroviral therapy and guiding therapeutic decisions in the treatment of HIV/AIDS” (ViroLogic, Inc., priority 1998, dated 2006)
